Assay results taken from the NIST ThermoML archive (doi:10.1016/j.jct.2011.08.016).
± gives the expanded uncertainty stated by the source.

Test: xn = mol fraction of the nth substance listed
Settings: Liquid, Vibrating tube method

CCCCCCCCCC [decane] + CCCCCCC
mass density (343.09 K, 1000 kPa, x2 = 0.0531): 690.42 ± 0.41 kg/m3
mass density (343.09 K, 1000 kPa, x2 = 0.5219): 670.9 ± 0.42 kg/m3
mass density (343.09 K, 1000 kPa, x2 = 0.777): 656.56 ± 0.43 kg/m3
mass density (343.09 K, 2000 kPa, x2 = 0.0531): 691.49 ± 0.42 kg/m3
mass density (343.09 K, 2000 kPa, x2 = 0.5219): 672.01 ± 0.43 kg/m3
mass density (343.09 K, 2000 kPa, x2 = 0.777): 657.76 ± 0.43 kg/m3
mass density (343.09 K, 3000 kPa, x2 = 0.0531): 692.55 ± 0.42 kg/m3
mass density (343.09 K, 3000 kPa, x2 = 0.5219): 673.08 ± 0.43 kg/m3
mass density (343.09 K, 3000 kPa, x2 = 0.777): 658.95 ± 0.44 kg/m3
mass density (343.09 K, 4000 kPa, x2 = 0.0531): 693.59 ± 0.43 kg/m3
mass density (343.09 K, 4000 kPa, x2 = 0.5219): 674.15 ± 0.44 kg/m3
mass density (343.09 K, 4000 kPa, x2 = 0.777): 660.13 ± 0.45 kg/m3
mass density (343.09 K, 5000 kPa, x2 = 0.0531): 694.62 ± 0.43 kg/m3
mass density (343.09 K, 5000 kPa, x2 = 0.5219): 675.24 ± 0.44 kg/m3
mass density (343.09 K, 5000 kPa, x2 = 0.777): 661.28 ± 0.45 kg/m3
mass density (343.09 K, 6000 kPa, x2 = 0.0531): 695.63 ± 0.44 kg/m3
mass density (343.09 K, 6000 kPa, x2 = 0.5219): 676.3 ± 0.45 kg/m3
mass density (343.09 K, 6000 kPa, x2 = 0.777): 662.42 ± 0.46 kg/m3
mass density (343.09 K, 7000 kPa, x2 = 0.0531): 696.62 ± 0.44 kg/m3
mass density (343.09 K, 7000 kPa, x2 = 0.5219): 677.39 ± 0.45 kg/m3
mass density (343.09 K, 7000 kPa, x2 = 0.777): 663.56 ± 0.46 kg/m3
mass density (343.09 K, 8000 kPa, x2 = 0.0531): 697.6 ± 0.45 kg/m3
mass density (343.09 K, 8000 kPa, x2 = 0.5219): 678.46 ± 0.46 kg/m3
mass density (343.09 K, 8000 kPa, x2 = 0.777): 664.71 ± 0.47 kg/m3
mass density (343.09 K, 9000 kPa, x2 = 0.0531): 698.57 ± 0.45 kg/m3
mass density (343.09 K, 9000 kPa, x2 = 0.5219): 679.53 ± 0.47 kg/m3
mass density (343.09 K, 9000 kPa, x2 = 0.777): 665.84 ± 0.48 kg/m3
mass density (343.09 K, 10000 kPa, x2 = 0.0531): 699.52 ± 0.46 kg/m3
mass density (343.09 K, 10000 kPa, x2 = 0.5219): 680.57 ± 0.47 kg/m3
mass density (343.09 K, 10000 kPa, x2 = 0.777): 666.95 ± 0.48 kg/m3
mass density (343.09 K, 11000 kPa, x2 = 0.0531): 700.46 ± 0.46 kg/m3
mass density (343.09 K, 11000 kPa, x2 = 0.5219): 681.55 ± 0.48 kg/m3
mass density (343.09 K, 11000 kPa, x2 = 0.777): 668.04 ± 0.49 kg/m3
mass density (343.09 K, 12000 kPa, x2 = 0.0531): 701.38 ± 0.47 kg/m3
mass density (343.09 K, 12000 kPa, x2 = 0.5219): 682.56 ± 0.48 kg/m3
mass density (343.09 K, 12000 kPa, x2 = 0.777): 669.13 ± 0.5 kg/m3
mass density (343.09 K, 13000 kPa, x2 = 0.0531): 702.3 ± 0.47 kg/m3
mass density (343.09 K, 13000 kPa, x2 = 0.5219): 683.57 ± 0.49 kg/m3
mass density (343.09 K, 13000 kPa, x2 = 0.777): 670.2 ± 0.5 kg/m3
mass density (343.09 K, 14000 kPa, x2 = 0.0531): 703.21 ± 0.48 kg/m3
mass density (343.09 K, 14000 kPa, x2 = 0.5219): 684.56 ± 0.5 kg/m3
mass density (343.09 K, 14000 kPa, x2 = 0.777): 671.24 ± 0.51 kg/m3
mass density (343.09 K, 15000 kPa, x2 = 0.0531): 704.09 ± 0.49 kg/m3
mass density (343.09 K, 15000 kPa, x2 = 0.5219): 685.54 ± 0.5 kg/m3
mass density (343.09 K, 15000 kPa, x2 = 0.777): 672.27 ± 0.52 kg/m3
mass density (343.09 K, 16000 kPa, x2 = 0.0531): 704.98 ± 0.49 kg/m3
mass density (343.09 K, 16000 kPa, x2 = 0.5219): 686.5 ± 0.51 kg/m3
mass density (343.09 K, 16000 kPa, x2 = 0.777): 673.29 ± 0.53 kg/m3
mass density (343.09 K, 17000 kPa, x2 = 0.0531): 705.84 ± 0.5 kg/m3
mass density (343.09 K, 17000 kPa, x2 = 0.5219): 687.45 ± 0.52 kg/m3
mass density (343.09 K, 17000 kPa, x2 = 0.777): 674.28 ± 0.53 kg/m3
mass density (343.09 K, 18000 kPa, x2 = 0.0531): 706.7 ± 0.5 kg/m3
mass density (343.09 K, 18000 kPa, x2 = 0.5219): 688.39 ± 0.52 kg/m3
mass density (343.09 K, 18000 kPa, x2 = 0.777): 675.26 ± 0.54 kg/m3
mass density (343.09 K, 19000 kPa, x2 = 0.0531): 707.54 ± 0.51 kg/m3
mass density (343.09 K, 19000 kPa, x2 = 0.5219): 689.28 ± 0.53 kg/m3
mass density (343.09 K, 19000 kPa, x2 = 0.777): 676.22 ± 0.55 kg/m3
mass density (343.09 K, 20000 kPa, x2 = 0.0531): 708.37 ± 0.52 kg/m3
mass density (343.09 K, 20000 kPa, x2 = 0.5219): 690.16 ± 0.54 kg/m3
mass density (343.09 K, 20000 kPa, x2 = 0.777): 677.14 ± 0.55 kg/m3
mass density (343.09 K, 21000 kPa, x2 = 0.0531): 709.2 ± 0.52 kg/m3
mass density (343.09 K, 21000 kPa, x2 = 0.5219): 691.02 ± 0.55 kg/m3
mass density (343.09 K, 21000 kPa, x2 = 0.777): 678.06 ± 0.56 kg/m3
mass density (343.09 K, 22000 kPa, x2 = 0.0531): 710 ± 0.53 kg/m3
mass density (343.09 K, 22000 kPa, x2 = 0.5219): 691.87 ± 0.55 kg/m3
mass density (343.09 K, 22000 kPa, x2 = 0.777): 678.95 ± 0.57 kg/m3
mass density (343.09 K, 23000 kPa, x2 = 0.0531): 710.8 ± 0.54 kg/m3
mass density (343.09 K, 23000 kPa, x2 = 0.5219): 692.69 ± 0.56 kg/m3
mass density (343.09 K, 23000 kPa, x2 = 0.777): 679.82 ± 0.58 kg/m3
mass density (343.09 K, 24000 kPa, x2 = 0.0531): 711.58 ± 0.54 kg/m3
mass density (343.09 K, 24000 kPa, x2 = 0.5219): 693.49 ± 0.57 kg/m3
mass density (343.09 K, 24000 kPa, x2 = 0.777): 680.67 ± 0.59 kg/m3
mass density (343.09 K, 25000 kPa, x2 = 0.0531): 712.36 ± 0.55 kg/m3
mass density (343.09 K, 25000 kPa, x2 = 0.5219): 694.29 ± 0.57 kg/m3
mass density (343.09 K, 25000 kPa, x2 = 0.777): 681.49 ± 0.59 kg/m3
mass density (343.11 K, 1000 kPa, x2 = 0.2594): 682.79 ± 0.42 kg/m3
mass density (343.11 K, 1000 kPa, x2 = 0.952): 645.16 ± 0.43 kg/m3
mass density (343.11 K, 2000 kPa, x2 = 0.2594): 683.83 ± 0.42 kg/m3
mass density (343.11 K, 2000 kPa, x2 = 0.952): 646.47 ± 0.44 kg/m3
mass density (343.11 K, 3000 kPa, x2 = 0.2594): 684.89 ± 0.43 kg/m3
mass density (343.11 K, 3000 kPa, x2 = 0.952): 647.73 ± 0.45 kg/m3
mass density (343.11 K, 4000 kPa, x2 = 0.2594): 685.87 ± 0.43 kg/m3
mass density (343.11 K, 4000 kPa, x2 = 0.952): 649 ± 0.45 kg/m3
mass density (343.11 K, 5000 kPa, x2 = 0.2594): 686.9 ± 0.44 kg/m3
mass density (343.11 K, 5000 kPa, x2 = 0.952): 650.27 ± 0.46 kg/m3
mass density (343.11 K, 6000 kPa, x2 = 0.2594): 687.93 ± 0.44 kg/m3
mass density (343.11 K, 6000 kPa, x2 = 0.952): 651.49 ± 0.46 kg/m3
mass density (343.11 K, 7000 kPa, x2 = 0.2594): 688.92 ± 0.45 kg/m3
mass density (343.11 K, 7000 kPa, x2 = 0.952): 652.71 ± 0.47 kg/m3
mass density (343.11 K, 8000 kPa, x2 = 0.2594): 689.92 ± 0.45 kg/m3
mass density (343.11 K, 8000 kPa, x2 = 0.952): 653.91 ± 0.48 kg/m3
mass density (343.11 K, 9000 kPa, x2 = 0.2594): 690.94 ± 0.46 kg/m3
mass density (343.11 K, 9000 kPa, x2 = 0.952): 655.08 ± 0.48 kg/m3
